Results as given in the supplement of paper PMC11208160.

Test: recombinant barcode read abundance after kanamycin selection (control-corrected) (log10(CPM+1)); higher = more efficient recombination; sequences stand for … in AGTGCAGAGAAAATCGGCCAGTTTTCTCTGCCTGCAGTCCGCATGCCGT…AGATTTATGCAGCGGACTGCCTTTCTCCCAAAGTGATAAACCGGACAGTATCATGGACCGGTTTTCCCGGTAATCCGTATTTGCAAGGTTGGTTTCACT; site = the 11-nt target
Procedure, shortened: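 A promoter, a target, a barcode and the first 104 bridge RNA bases under J23119 made up each oligo. Oligos were Gibson-cloned into a vector bearing the other 73 bp and a T7-inducible recombinase, then co-electroporated into E. coli with a donor plasmid and plated in duplicate on chloramphenicol/ampicillin LB agar (control) or chloramphenicol/ampicillin/kanamycin with 0.1 mM IPTG. Recombination efficiency is the averaged, control-corrected counts per million of recombinant-junction barcodes. Reported values are log10(CPM+1).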
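Also: IS621 recombinase and bridge RNA in Escherichia coli cells.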

Sequence | recombinant barcode read abundance (log10)
TGAGGATCTTGGGTTCTAACCTGTTGCCT (site TGAGGATCTAG) | 0.99
TGAGGATCTTGGGTTCTAACCTGTTGCCT (site TGAGGCACTAG) | 0.503
TGAGGGACTTGGGTTCTAACCTGTTGCCT (site CTCATAGCTTC) | 0.0546
TGAGGGACTTGGGTTCTAACCTGTTGCCT (site TGAGGGACTAG) | 1.9
TGAGTCCCTTGGGTTCTAACCTGTTGCTT (site TGAGTACCTAA) | 0.0411
TGAGTCCCTTGGGTTCTAACCTGTTGCTT (site TGAGTCCCTAA) | 1.67
TGAGTCCCTTGGGTTCTAACCTGTTGCTT (site TGAGTGCCTAA) | 0.0566
TGAGTCCCTTGGGTTCTAACCTGTTGCTT (site TGAGTTCCTAA) | 0.125
TGAGTGCCTTGGGTTCTAACCTGTTGCTT (site TGAGTACCTAA) | 0.682
TGAGTGCCTTGGGTTCTAACCTGTTGCTT (site TGAGTCCCTAA) | 0.116
TGAGTGCCTTGGGTTCTAACCTGTTGCTT (site TGAGTGCCTAA) | 1.1
TGAGTGCCTTGGGTTCTAACCTGTTGCTT (site TGAGTTCCTAA) | 0.0622
TGATCCTCTTGGGTTCTAACCTGTTGCTA (site AGGTCCTCTTA) | 0.0555
TGATCCTCTTGGGTTCTAACCTGTTGCTA (site TGATCCTCTTA) | 0.513
TGCACTCCTTGGGTTCTAACCTGTTGCCT (site TACAGTCCTAG) | 0.0234
TGCACTCCTTGGGTTCTAACCTGTTGCCT (site TGCACTCCTAG) | 0.0424
TGCATAGCTTGGGTTCTAACCTGTTGCAG (site CTGCAGTCTTG) | 0.00928
TGCATAGCTTGGGTTCTAACCTGTTGCAG (site TGCATAGCTCT) | 1.49
TGCCAGACTTGGGTTCTAACCTGTTGCGT (site AGCCACACTAC) | 0.0104
TGCCAGACTTGGGTTCTAACCTGTTGCGT (site TGCCAGACTAC) | 1.74
TGCCCCTCTTGGGTTCTAACCTGTTGCCG (site ACAAGGCCTAT) | 0.0768
TGCCCCTCTTGGGTTCTAACCTGTTGCCG (site TGCCCCTCTCG) | 1.46
TGCCCTCCTTGGGTTCTAACCTGTTGCTT (site TCCTCTCCTAA) | 0.0862
TGCCCTCCTTGGGTTCTAACCTGTTGCTT (site TGCCCTCCTAA) | 0.0976
TGCCTCTCTTGGGTTCTAACCTGTTGCTA (site GTTAGACCTAG) | 0.0422
TGCCTCTCTTGGGTTCTAACCTGTTGCTA (site TGCCTCTCTTA) | 0.279

Sequence | recombinant barcode read abundance (log10)
TGCGATACTTGGGTTCTAACCTGTTGCTT (site ACACGAGCTCT) | 0.0799
TGCGATACTTGGGTTCTAACCTGTTGCTT (site TGCGATACTAA) | 0.223
TGCGGGTCTTGGGTTCTAACCTGTTGCCT (site GAGCTTGCTTC) | 0.273
TGCGGGTCTTGGGTTCTAACCTGTTGCCT (site TGCGGGTCTAG) | 0.702
TGCGTTCCTTGGGTTCTAACCTGTTGCGT (site TGCGTCACTAC) | 0.0759
TGCGTTCCTTGGGTTCTAACCTGTTGCGT (site TGCGTTCCTAC) | 0.88
TGCTAGGCTTGGGTTCTAACCTGTTGCCT (site TGCTAGGCTAG) | 0.0609
TGCTAGGCTTGGGTTCTAACCTGTTGCCT (site TGTCAGGCTAG) | 0.0576
TGCTCGGCTTGGGTTCTAACCTGTTGCCT (site AGCTCCGCTAG) | 0
TGCTCGGCTTGGGTTCTAACCTGTTGCCT (site TGCTCGGCTAG) | 0.0603
TGCTCTACTTGGGTTCTAACCTGTTGCTT (site TGATCTACTAA) | 0.122
TGCTCTACTTGGGTTCTAACCTGTTGCTT (site TGCTCTACTAA) | 0.0286
TGCTCTACTTGGGTTCTAACCTGTTGCTT (site TGGTCTACTAA) | 0.0891
TGCTCTACTTGGGTTCTAACCTGTTGCTT (site TGTTCTACTAA) | 0.00634
TGCTGTGCTTGGGTTCTAACCTGTTGCCT (site TGCTGTACTAG) | 0.0329
TGCTGTGCTTGGGTTCTAACCTGTTGCCT (site TGCTGTCCTAG) | 0.179
TGCTGTGCTTGGGTTCTAACCTGTTGCCT (site TGCTGTGCTAG) | 0.29
TGCTGTGCTTGGGTTCTAACCTGTTGCCT (site TGCTGTTCTAG) | 0.279
TGGAACACTTGGGTTCTAACCTGTTGCCT (site TGGAACACTAG) | 0.98
TGGAACACTTGGGTTCTAACCTGTTGCCT (site TGGACCACTAG) | 0.0483
TGGAACACTTGGGTTCTAACCTGTTGCCT (site TGGAGCACTAG) | 0.0596
TGGAACACTTGGGTTCTAACCTGTTGCCT (site TGGATCACTAG) | 0.119
TGGACCTCTTGGGTTCTAACCTGTTGCCA (site CTACGAACTCC) | 0.626
TGGACCTCTTGGGTTCTAACCTGTTGCCA (site TGGACCTCTTG) | 0.222
TGGACGTCTTGGGTTCTAACCTGTTGCCT (site TGGACGCCTAG) | 0.125
TGGACGTCTTGGGTTCTAACCTGTTGCCT (site TGGACGTCTAG) | 0.865

Sequence | recombinant barcode read abundance (log10)
TGGACTTCTTGGGTTCTAACCTGTTGCTC (site TGGACTTCTCA) | 0.24
TGGACTTCTTGGGTTCTAACCTGTTGCTC (site TGGACTTCTGA) | 0.141
TGGCAGACTTGGGTTCTAACCTGTTGCCT (site TGGCAGACTAG) | 0.215
TGGCAGACTTGGGTTCTAACCTGTTGCCT (site TGGCAGCCTAG) | 0.263
TGGCAGACTTGGGTTCTAACCTGTTGCCT (site TGGCAGGCTAG) | 0.0442
TGGCAGACTTGGGTTCTAACCTGTTGCCT (site TGGCAGTCTAG) | 0.232
TGGCAGCCTTGGGTTCTAACCTGTTGCCT (site TGGCAGACTAG) | 0.0766
TGGCAGCCTTGGGTTCTAACCTGTTGCCT (site TGGCAGCCTAG) | 0.216
TGGCAGCCTTGGGTTCTAACCTGTTGCCT (site TGGCAGGCTAG) | 0.231
TGGCAGCCTTGGGTTCTAACCTGTTGCCT (site TGGCAGTCTAG) | 0.0934
TGGCGTGCTTGGGTTCTAACCTGTTGCCT (site TGGCGTGCTAG) | 0.382
TGGCGTGCTTGGGTTCTAACCTGTTGCCT (site TGTTGTGCTAG) | 0.118
TGGCTGTCTTGGGTTCTAACCTGTTGCCT (site TGGCTGTCTAG) | 1.2
TGGCTGTCTTGGGTTCTAACCTGTTGCCT (site TGGTTGTCTAG) | 0.0561
TGGTACCCTTGGGTTCTAACCTGTTGCTA (site GTTACTACTCG) | 0.0129
TGGTACCCTTGGGTTCTAACCTGTTGCTA (site TGGTACCCTTA) | 1.36
TGGTAGTCTTGGGTTCTAACCTGTTGCGT (site AAAGCTACTTA) | 0.0198
TGGTAGTCTTGGGTTCTAACCTGTTGCGT (site TGGTAGTCTAC) | 2.57
TGGTATACTTGGGTTCTAACCTGTTGCCT (site TGGTATACTAG) | 0.241
TGGTATACTTGGGTTCTAACCTGTTGCCT (site TGGTATCCTAG) | 0.0279
TGGTATACTTGGGTTCTAACCTGTTGCCT (site TGGTATGCTAG) | 0.183
TGGTATACTTGGGTTCTAACCTGTTGCCT (site TGGTATTCTAG) | 0.122
TGGTGTGCTTGGGTTCTAACCTGTTGCCA (site TAGTGTCCTTG) | 0.0537
TGGTGTGCTTGGGTTCTAACCTGTTGCCA (site TGGTGTGCTTG) | 0.267
TGTAAGGCTTGGGTTCTAACCTGTTGCTT (site TGTAAGACTCA) | 0.142
